Assay: xn = mol fraction of the nth substance listed

CCc1ccccc1 + CCCCCCCCCCO
viscosity [mPa·s], 101 kPa
Conditions | 298.15 K | 308.15 K
x1 = 0.0666 | 9.53 | 6.54
x1 = 0.1392 | 7.494 | 5.177
x1 = 0.1932 | 6.24 | 4.343
x1 = 0.2642 | 4.904 | 3.44
x1 = 0.3355 | 3.841 | 2.703
x1 = 0.3936 | 3.152 | 2.225
x1 = 0.4483 | 2.623 | 1.883
x1 = 0.5238 | 2.056 | 1.499
x1 = 0.598 | 1.632 | 1.206
x1 = 0.6621 | 1.35 | 1.023
x1 = 0.7309 | 1.118 | 0.863
x1 = 0.7953 | 0.951 | 0.744
x1 = 0.8668 | 0.802 | 0.659
x1 = 0.9396 | 0.693 | 0.597

Clc1cccc2ccccc12 + COc1ccccc1
viscosity [mPa·s], 101.33 kPa
Conditions | x1 = 0.0985 | x1 = 0.1969 | x1 = 0.2977 | x1 = 0.3974 | x1 = 0.4997 | x1 = 0.5959 | x1 = 0.6962 | x1 = 0.7827 | x1 = 0.8985
298.15 K | 1.025 | 1.116 | 1.262 | 1.409 | 1.568 | 1.72 | 1.896 | 2.096 | 2.425
303.15 K | 0.946 | 1.045 | 1.159 | 1.291 | 1.43 | 1.566 | 1.724 | 1.891 | 2.18
308.15 K | 0.878 | 0.966 | 1.069 | 1.185 | 1.312 | 1.431 | 1.57 | 1.717 | 1.973

CCCCn1cc[n+](C)c1.F[P-](F)(F)(F)(F)F + Cc1ccccc1
Conditions | viscosity [mPa·s]
310.65 K, 101 kPa, x1 = 0.8 | 31.65

Clc1cccc2ccccc12 + c1ccccc1
viscosity [mPa·s], 101.33 kPa
Conditions | x1 = 0.0989 | x1 = 0.2022 | x1 = 0.3275 | x1 = 0.3981 | x1 = 0.5035 | x1 = 0.5982 | x1 = 0.7022 | x1 = 0.7973 | x1 = 0.8976
298.15 K | 0.655 | 0.792 | 0.96 | 1.078 | 1.294 | 1.475 | 1.731 | 2.022 | 2.38
303.15 K | 0.609 | 0.727 | 0.903 | 0.994 | 1.188 | 1.349 | 1.586 | 1.833 | 2.126
308.15 K | 0.571 | 0.679 | 0.843 | 0.922 | 1.098 | 1.242 | 1.452 | 1.669 | 1.928

CCCC(C)C + CCCCCCCCCCCC
298 K, 101.33 kPa
Conditions | viscosity [mPa·s]
x1 = 0.1004 | 1.205
x1 = 0.2007 | 1.075
x1 = 0.3018 | 0.939
x1 = 0.4027 | 0.8181
x1 = 0.5008 | 0.7124
x1 = 0.6002 | 0.6097
x1 = 0.6996 | 0.5148
x1 = 0.8002 | 0.4229
x1 = 0.9003 | 0.3443

OCCCCCO + CN(C)C=O
308.15 K, 101 kPa
Conditions | viscosity [mPa·s]
x1 = 0.025 | 0.759
x1 = 0.0483 | 0.826
x1 = 0.1005 | 1.025
x1 = 0.1877 | 1.446
x1 = 0.2971 | 2.284
x1 = 0.388 | 3.676
x1 = 0.4882 | 5.774
x1 = 0.586 | 9.073
x1 = 0.6875 | 14.59
x1 = 0.7802 | 22.71
x1 = 0.9446 | 49.91
x1 = 0.9714 | 56.42

Clc1ccccc1 + CCOC(C)=O
viscosity [mPa·s], 101 kPa
Conditions | 298.15 K | 308.15 K
x2 = 0.0415 | 0.729 | 0.658
x2 = 0.1504 | 0.669 | 0.607
x2 = 0.2503 | 0.621 | 0.567
x2 = 0.3519 | 0.58 | 0.531
x2 = 0.4264 | 0.553 | 0.507
x2 = 0.4878 | 0.534 | 0.489
x2 = 0.5527 | 0.515 | 0.472
x2 = 0.6519 | 0.489 | 0.448
x2 = 0.7505 | 0.468 | 0.428
x2 = 0.8515 | 0.449 | 0.409
x2 = 0.9389 | 0.436 | 0.396

CCCCn1cc[n+](C)c1.F[P-](F)(F)(F)(F)F + CO
Conditions | viscosity [mPa·s]
298.15 K, 101 kPa, x1 = 0.7082 | 45.95

CCc1ccccc1 + CN(C)C=O
viscosity [mPa·s], 101.33 kPa
Conditions | 303.15 K | 313.15 K
x2 = 0.0997 | 0.597 | 0.542
x2 = 0.1996 | – | 0.556
x2 = 0.1997 | 0.614 | –
x2 = 0.2997 | – | 0.568
x2 = 0.2999 | 0.631 | –
x2 = 0.4154 | 0.652 | 0.584
x2 = 0.5109 | 0.667 | 0.597
x2 = 0.584 | 0.679 | 0.608
x2 = 0.6991 | 0.696 | 0.625
x2 = 0.8014 | 0.709 | 0.641
x2 = 0.8872 | 0.719 | 0.652

CCCC(C)C + CCCCCCCCCCCCCCCC
298 K, 101.33 kPa
Conditions | viscosity [mPa·s]
x1 = 0.1177 | 2.572
x1 = 0.2071 | 2.199
x1 = 0.3082 | 1.835
x1 = 0.4013 | 1.53
x1 = 0.4982 | 1.241
x1 = 0.6029 | 0.9821
x1 = 0.7034 | 0.7606
x1 = 0.8025 | 0.5679
x1 = 0.9006 | 0.3949

COCCOCCOCCOCCOC + ClC(Cl)Cl
298.15 K, 101 kPa
Conditions | viscosity [mPa·s]
x1 = 0.0305 | 0.671
x1 = 0.06 | 0.81
x1 = 0.0813 | 0.921
x1 = 0.118 | 1.124
x1 = 0.1876 | 1.492
x1 = 0.2354 | 1.766
x1 = 0.2657 | 1.91
x1 = 0.2957 | 2.04
x1 = 0.35 | 2.276
x1 = 0.4029 | 2.413
x1 = 0.4429 | 2.521
x1 = 0.5093 | 2.676
x1 = 0.5445 | 2.745
x1 = 0.6146 | 2.883
x1 = 0.6452 | 2.925
x1 = 0.7142 | 3.035
x1 = 0.7593 | 3.083
x1 = 0.8142 | 3.141
x1 = 0.88 | 3.227
x1 = 0.9225 | 3.252

C=CC(=O)OCC + CCCCC(C)O
viscosity [mPa·s], 101 kPa
Conditions | 298.15 K | 308.15 K
x1 = 0.05505 | 3.659 | 2.636
x1 = 0.09982 | 3.336 | 2.426
x1 = 0.1555 | 2.973 | 2.188
x1 = 0.1998 | 2.712 | 2.015
x1 = 0.2555 | 2.417 | 1.817
x1 = 0.2999 | 2.205 | 1.673
x1 = 0.3554 | 1.965 | 1.509
x1 = 0.3999 | 1.793 | 1.389
x1 = 0.4555 | 1.598 | 1.253
x1 = 0.4999 | 1.458 | 1.154
x1 = 0.5556 | 1.299 | 1.04
x1 = 0.5999 | 1.185 | 0.958
x1 = 0.6554 | 1.056 | 0.864
x1 = 0.6995 | 0.964 | 0.797
x1 = 0.7554 | 0.859 | 0.718
x1 = 0.7999 | 0.783 | 0.661
x1 = 0.8555 | 0.698 | 0.596
x1 = 0.8999 | 0.637 | 0.549
x1 = 0.9555 | 0.568 | 0.495

COC(C)(C)C + C1CCCCC1
303.15 K, 101 kPa
Conditions | viscosity [mPa·s]
x1 = 0.132 | 0.693
x1 = 0.2612 | 0.609
x1 = 0.3989 | 0.536
x1 = 0.5216 | 0.485
x1 = 0.5654 | 0.466
x1 = 0.7149 | 0.42
x1 = 0.8393 | 0.384
